Results taken from patent publication US8563254B2, “Biomarkers of tumor pharmacodynamic response” (Novartis AG, priority 2009, dated 2013).

Experiments:
A375 cells [1] = assay: Quantitative RT-PCR of IL-8 mRNA, A375; format: cell-based, human; conditions: A375, 0.3 μM, 16 hr
Protocol: Total cellular RNA was extracted from the GTL-16 and A375 cell lines using RNeasy mini kit (Qiagen, Inc., Valencia, Calif., USA). Total RNA quantitation was carried out using a RiboGreen assay (Invitrogen Corporation, Carlsbad, Calif., USA). 1 μg of total RNA was reverse transcribed using AMV reverse transcriptase (Reverse Transcription Kit, Promega U.S., Madison, Wis., USA). A 20 μl reaction cocktail was prepared as follows; 1 μg total RNA in 10 μl of RNase, DNase-free H2O, 4 μl of 25 mM MgCl2, 2 μl of 10× reverse transcriptase buffer, 2 μl of 10 mM dNTP's, 1 μl of 500 μg ml^−1 random hexamers, 1.5 μl of 10 μl ml^−1, and 40 U μl^−1 0.5 μl of recombinant RNase Inhibitor. Real time PCR was performed using a 7900HT fast real-time PCR system (Applied Biosystems, Foster City, Calif., USA) using the Power SYBR Green PCR master mix (Applied Biosystems). The primers for IL-8 and GAPDH were: IL-8 sense: 5′-[…]-3′ (SEQ ID NO:3) and IL-8 antisense:
5′-[…]-3′ (SEQ ID NO:4); and GAPDH sense:
5′-[…]-3′ (SEQ ID NO:5), and GAPDH antisense;
5′-[…]-3′. (SEQ ID NO:6) The amplification process involved an initial 5 min denaturing step at 95° C. This was followed by annealing reactions for both IL-8 and GAPDH, of 45 s at 95° C. with 230 s at 68° C. for 34 cycles and 1 min at 95° C. with 1 min at 60° C. and 1 min 72° C. for 30 cycles, respectively. The final extension was 10 min at 72° C. […]

A375 cells [2] = assay: Western blot of total protein lysates, A375; format: cell-based, human; conditions: A375, 0.3 μM, 16 hr and 24 hr
Protocol: Total protein lysates were prepared from the GTL-16 and A375 cells with RIPA lysis buffer (Upstate, Millipore Corporation, Charlottesville, Va., USA). Cells were washed with PBS and 500 ul of ice-cold RIPA buffer, containing protease inhibitor cocktail tablet (Roche Diagnostic GmbH, Mannheim, Germany) and phosphatase inhibitors (Sigma-Aldrich, Inc., St. Louis, Mo., USA), was added to each plate on ice. After 15 min the cells were scrapped from the plate surface and spun at 16000 RPM for 10 min at 4° C. The supernatant was collected and frozen at −80° C. Nuclear protein fractions were prepared by the NE-PER nuclear and cytoplasmic extraction kit (Pierce Biotechnology, Rockford, Ill., USA). Proteins were quantified by bicinchoninic acid assay (Pierce Biotechnology, Rockford, Ill., USA) for Western blotting. Primary antibodies specific for NFκB p65, cREL, p-ERK1/2, p-c-jun, ERK1 and Jun were purchased from Santa Cruz Biotechnology (Santa Cruz Biotechnology, Inc., Santa Cruz, Calif., USA) with the exception of Hsp70 and TBP (nuclear loading control), which were obtained from StressGen (StressGen, Assay Designs, Inc., Aim Arbor, Mich., USA) and Abcam (Abcam Inc., Cambridge, Mass., USA), respectively. 4-12% Bis-Tris SDS-PAGE, denaturing, non-reducing gels were loaded with 30 μg of total protein, a SeeBlue2Plus pre-stained protein standard and MES SDS running buffer were utilized for the electrophoretic separation in a XCell SureLock™ Mini-Cell (Invitrogen Corporation, Inc., Carlsbad, Calif., USA). An iBlot™ gel transfer PVDF stack with iBlot™ gel transfer system (Invitrogen) was used. An Odyssey Infrared Imaging System was used to detect the immunocomplex (Li-COR Biotechnologies, Inc., Lincoln, Nebr., USA). Li-COR blocking buffer was used to limit cross-reactivity. Membranes were incubated at 4° C. overnight in the primary antibody diluted in blocking buffer, followed by 1 hr room temperature incubation with a secondary IgG antibody (Li-COR IR dye, Li-COR).

[3] = system: GTL-16 tumor-bearing mice; assay: Serum IL-8 / mouse KC in GTL-16 mouse xenograft model; format: in vivo
Protocol: The in vivo study was carried out in strict accordance with Swiss law for animal protection and was approved by the Swiss Cantonal Veterinary Office of Basel-Stadt. GTL-16 (4×10^6) and A375 cells (5×10^6) were inoculated subcutaneously in the right flank in 200 μl Hanks' balanced salt solution (HBSS) or PBS, respectively. Invasive procedures were performed under Forene anesthesia. All experiments were performed in female Harlan HsdNpa: Athymic Nude-nu mice (Laboratory Animal Services, Novartis Pharma AG, Basel). The animals were kept under optimized hygienic conditions with 12 hr dark, 12 hr light conditions. The animals were fed food and water ad libitum. A single 75 mg/kg and 50 mg/kg dose of Hsp90 inhibitor, NVP-AUY922 was administered to the GTL-16 and A375 tumor-bearing mice, when tumors had reached a mean volume of 200 mm^3-500 mm^3 in size. Mice in the control group were injected with the vehicle (D5W). Serum was isolated and tumors dissected over the time course 0-168 hr. Tumors were cut in two halves. One half was paraffin embedded and the other snap frozen, and stored at −80° C.
Human IL-8 levels in cell culture supernatants treated with NVP-AUY922 were initially assessed as part of a multiplexed bead-based cytokine panel (hu 27-plex panel I, Bio-rad Laboratories, Hercules, Calif., USA) with a BioPlex Suspension Array System (Bio-rad). Human IL-8 and mouse KC levels in serum derived from GTL-16 and A375 tumor-bearing mice treated with NVP-AUY922 were measured by single-plex cytokine bead-based assay (Milliplex, Millipore, Billerica, Mass., USA). The BioPlex system uses a liquid suspension array of beads. The beads align in a single file through a flow cell to the detector, where a red classification laser at a wavelength of 635 nm and a green reporter laser at a wavelength of 532 nm are used to identify each bead's spectral address and associated reporter signal, respectively.

CCNC(=O)c1noc(-c2cc(C(C)C)c(O)cc2O)c1-c1ccc(CN2CCOCC2)cc1 [NVP-AUY922, 5-(2,4-Dihydroxy-5-isopropyl-phenyl)-4-(4-morhpolin-4-ylmethyl-phenyl)-isoxazole-3-carboxylic acid ethylamide]
IL-8 mRNA levels lower in treated versus untreated cells (A375 cells [1]): 95% | Hsp70 induction (A375 cells [2]): induction was observed | levels of phospho-ERK1/2 and phospho-c-Jun (A375 cells [2]): significantly diminished | total ERK and c-Jun levels (A375 cells [2]): unaffected | total cellular levels of NFκB p65 and c-REL (A375 cells [2]): essentially unchanged | murine IL-8 levels, measured indirectly as mu KC ([3]; serum): unchanged | earliest time of significant decrease in serum IL-8 ([3]; single 75 mg/kg dose): 6 h | time by which serum IL-8 recovers to pre-treatment levels ([3]; single 75 mg/kg dose): ≤ 72 h | maximum decline of serum IL-8 levels ([3]; single 75 mg/kg dose, 12 hr post-treatment): approximately 70%
